Results from patent US10894885B2, “Crosslinkable composition and method for producing a coated article” (HWK KRONBICHLER GMBH, priority 2016, dated 2021).

Assay: Surface tension at a suspended drop (Drop Shape Analyser DSA 25)
Assay type: physicochemical
Conditions: 23.5-25.0° C., ten measurements
Experimental: The surface tension was determined at a suspended drop using a “Drop Shape Analyser DSA 25” of the Krüss corporation. The measurements were performed at temperatures between 23.5 and 25.0° C. and at a relative humidity of approximately 15-30%. The sample was measured a total of ten times. The standard deviation is marked by s in Table 4 shown below.

SMILES: C=Cn1cc[n+](CCC(F)(F)C(F)(F)C(F)(F)C(F)(F)C(F)(F)C(F)(F)F)c1.[Cl-] [3-(1H,1H,2H,2H-perfluorooctyl)-1-vinyl-1H-imidazoliumchloride]
- OFS (surface tension) (c 0.5 w/w % in water): 21.94 mN/m
- OFS (surface tension) (c 1 w/w % in water): 20.58 mN/m
